Each structure is given as a SMILES string.

The test can be described thus: Inhibitory constant was determined against Protein tyrosine phosphatase (PTP) using the Kitz and Wilson method.

Molecule `O=C1C(CCl)=CS(=O)(=O)c2ccccc21` returned a Ki of 3.5 µM.

A word on the Ki: it is the dissociation constant of the complex between target and ligand, obtained from inhibition or displacement. Low readings indicate higher affinity, high ones lower affinity.

The record behind these values is ChEMBL document CHEMBL1132015, “Selective inactivation of protein tyrosine phosphatase PTP1B by sulfone analogue of naphthoquinone” (Bioorg Med Chem Lett, 1999).
